# Test results taken from patent US20250368649A1, “TETRAHYDROPYRIDOPYRIMIDINE PAN-KRAS INHIBITORS” (Mirati Therapeutics, Inc., priority 2022, published 2025).
# Assays:
# H727 cells = experiment: Inhibition of KRas-mediated phosphorylation of ERK (Cisbio HTRF pERK), H727 cells; assay type: cell-based; conditions: Homo sapiens; for IC50: NCI-H727, 3 h, 3 hr compound incubation, Cisbio pERK HTRF
# KRas G12S = KRas G12S (Homo sapiens, UniProt P01116, G12S); assay type: binding; conditions: single point, 10 nM compound, read-out: Binding to KRas (% inhibition at 10 nM) G12S
# KRas G12R = KRas G12R (Homo sapiens, UniProt P01116, G12R); experiment: biochemical; conditions: Binding to KRas (IC50 nM) G12R, TR-FRET displacement, KRas G12R
# KRas G12D = KRas G12D (Homo sapiens, UniProt P01116, G12D); experiment: biochemical; conditions: Binding to KRas (IC50 nM) G12D, TR-FRET displacement, KRas G12D
# KRas G12V = KRas G12V (Homo sapiens, UniProt P01116, G12V); experiment: biochemical; conditions: Binding to KRas (IC50 nM) G12V, TR-FRET displacement, KRas G12V
# PSN1 cells = experiment: Inhibition of KRas-mediated phosphorylation of ERK (Cisbio HTRF pERK), PSN1 cells; assay type: cell-based; conditions: Homo sapiens, PSN1, 3 h, 3 hour compound incubation, Cisbio pERK HTRF
# Method in brief: (§1)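 On the first day, plate 6,000 cells into each well in RPMI medium with 10% fetal bovine serum.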
# KRas G13D = KRas G13D (Homo sapiens, UniProt P01116, G13D); assay type: binding; conditions: single point, 10 nM compound, read-out: Binding to KRas (% inhibition at 10 nM) G13D
# A549 cells = experiment: Inhibition of KRas-mediated phosphorylation of ERK (Cisbio HTRF pERK), A549 cells; assay type: cell-based; conditions: Homo sapiens; for IC50: A549, 3 h, 3 hr compound incubation, Cisbio pERK HTRF; for inhibition at 0.1 µM: single point at 100 nM, 3 hrs compound incubation
# HCT116 cells = experiment: Inhibition of KRas-mediated phosphorylation of ERK (Cisbio HTRF pERK), HCT116 cells; assay type: cell-based; conditions: Homo sapiens; for IC50: HCT-116, 3 h, 3 hr compound incubation, Cisbio pERK HTRF; for inhibition at 0.1 µM: HCT-116, single point at 100 nM, 3 hrs compound incubation
# MKN1 cells = experiment: Inhibition of KRas-mediated phosphorylation of ERK (Cisbio HTRF pERK), MKN1 cells; assay type: cell-based; conditions: Homo sapiens, MKN-1, 3 hour compound incubation, Cisbio pERK HTRF
# Method in brief: as §1
# KRas G12A = KRas G12A (Homo sapiens, UniProt P01116, G12A); assay type: binding; conditions: single point, 10 nM compound, read-out: Binding to KRas (% inhibition at 10 nM) G12A
# ASPC1 cells = experiment: Inhibition of KRas-mediated phosphorylation of ERK (Cisbio HTRF pERK), ASPC1 cells; assay type: cell-based; conditions: Homo sapiens, AsPC-1 cells; for IC50: ASPC1, 3 h, 3 hr compound incubation, Cisbio pERK HTRF
# H358 cells = experiment: Inhibition of KRas-mediated phosphorylation of ERK (Cisbio HTRF pERK), H358 cells; assay type: cell-based; conditions: Homo sapiens; for IC50: NCI-H358, 3 h, 3 hr compound incubation, Cisbio pERK HTRF; for inhibition at 0.1 µM: NCI-H358, single point at 100 nM, 3 hrs compound incubation
# KRas G12C = KRas G12C (Homo sapiens, UniProt P01116, G12C); assay type: binding; conditions: single point, 10 nM compound, read-out: Binding to KRas (% inhibition at 10 nM) G12C
# KRas Q61H = KRas Q61H (Homo sapiens, UniProt P01116, Q61H); experiment: KRas binding assay (TR-FRET displacement), KRas Q61H; conditions: single point, 10 nM compound
# KRas WT = KRas WT (Homo sapiens, UniProt P01116); experiment: KRas binding assay (TR-FRET displacement), KRas WT; conditions: single point, 10 nM compound
# H460 cells = experiment: Inhibition of KRas-mediated phosphorylation of ERK (Cisbio HTRF pERK), H460 cells; assay type: cell-based; conditions: Homo sapiens; for IC50: NCI-H460, 3 h, 3 hr compound incubation, Cisbio pERK HTRF; for inhibition at 0.1 µM: NCI-H460, single point at 100 nM, 3 hrs compound incubation
# Chain of KRas G12R (P01116 1-169 isoform P01116-2 G12R): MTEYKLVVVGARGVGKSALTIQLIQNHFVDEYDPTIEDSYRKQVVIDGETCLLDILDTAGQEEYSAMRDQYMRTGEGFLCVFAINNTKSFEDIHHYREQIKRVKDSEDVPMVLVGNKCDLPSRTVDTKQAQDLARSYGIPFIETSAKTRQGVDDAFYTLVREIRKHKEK
# Chain of KRas WT (P01116 1-169 isoform P01116-2): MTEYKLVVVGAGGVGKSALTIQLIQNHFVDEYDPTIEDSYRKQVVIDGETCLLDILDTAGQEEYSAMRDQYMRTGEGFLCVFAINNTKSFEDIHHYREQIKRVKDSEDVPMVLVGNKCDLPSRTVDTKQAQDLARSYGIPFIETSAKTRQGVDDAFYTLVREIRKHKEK
# Chain of KRas G12C (P01116 1-169 isoform P01116-2 G12C): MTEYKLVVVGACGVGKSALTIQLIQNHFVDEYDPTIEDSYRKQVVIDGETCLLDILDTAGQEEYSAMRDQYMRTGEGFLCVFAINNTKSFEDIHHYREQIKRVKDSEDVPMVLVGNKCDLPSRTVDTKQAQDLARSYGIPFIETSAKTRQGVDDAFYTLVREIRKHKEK
# Chain of KRas Q61H (P01116 1-169 isoform P01116-2 Q61H): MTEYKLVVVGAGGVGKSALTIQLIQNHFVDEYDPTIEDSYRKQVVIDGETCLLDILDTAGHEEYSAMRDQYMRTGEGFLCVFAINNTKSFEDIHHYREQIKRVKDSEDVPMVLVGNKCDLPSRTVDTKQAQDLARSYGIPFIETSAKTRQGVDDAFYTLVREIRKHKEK
# Chain of KRas G13D (P01116 1-169 isoform P01116-2 G13D): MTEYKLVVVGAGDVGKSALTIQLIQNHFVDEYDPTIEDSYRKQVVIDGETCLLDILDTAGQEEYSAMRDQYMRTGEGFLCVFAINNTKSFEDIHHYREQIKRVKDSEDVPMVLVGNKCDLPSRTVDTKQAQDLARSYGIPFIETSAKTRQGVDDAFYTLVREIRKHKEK
# Chain of KRas G12D (P01116 1-169 isoform P01116-2 G12D): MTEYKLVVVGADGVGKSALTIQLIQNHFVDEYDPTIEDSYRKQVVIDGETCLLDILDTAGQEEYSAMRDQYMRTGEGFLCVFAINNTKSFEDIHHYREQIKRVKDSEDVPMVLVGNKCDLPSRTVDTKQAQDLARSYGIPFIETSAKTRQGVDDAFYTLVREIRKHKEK
# Chain of KRas G12A (P01116 1-169 isoform P01116-2 G12A): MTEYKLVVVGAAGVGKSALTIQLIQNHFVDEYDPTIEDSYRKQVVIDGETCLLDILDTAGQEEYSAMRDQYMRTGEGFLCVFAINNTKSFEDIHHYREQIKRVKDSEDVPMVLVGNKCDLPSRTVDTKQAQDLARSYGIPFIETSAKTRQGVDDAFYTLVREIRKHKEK
# Chain of KRas G12V (P01116 1-169 isoform P01116-2 G12V): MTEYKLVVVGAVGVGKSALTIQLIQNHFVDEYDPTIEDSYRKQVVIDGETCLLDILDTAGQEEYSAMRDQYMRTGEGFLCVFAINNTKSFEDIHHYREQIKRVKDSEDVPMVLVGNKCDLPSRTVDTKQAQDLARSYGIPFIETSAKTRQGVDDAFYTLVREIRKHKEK
# Chain of KRas G12S (P01116 1-169 isoform P01116-2 G12S): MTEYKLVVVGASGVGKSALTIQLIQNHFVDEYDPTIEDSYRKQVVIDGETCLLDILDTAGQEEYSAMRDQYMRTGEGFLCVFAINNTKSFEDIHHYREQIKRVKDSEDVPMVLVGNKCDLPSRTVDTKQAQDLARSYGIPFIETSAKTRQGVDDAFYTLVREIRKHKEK
Compound,IC50 (H727 cells),inhibition at 0.01 µM (KRas G12S),IC50 (KRas G12R),IC50 (KRas G12D),IC50 (KRas G12V),IC50 (PSN1 cells),inhibition at 0.01 µM (KRas G13D),IC50 (A549 cells),IC50 (HCT116 cells),IC50 (MKN1 cells),inhibition at 0.01 µM (KRas G12A),IC50 (ASPC1 cells),IC50 (H358 cells),inhibition at 0.01 µM (KRas G12C),inhibition at 0.01 µM (KRas Q61H),inhibition at 0.01 µM (KRas WT),IC50 (H460 cells),inhibition at 0.1 µM (A549 cells),inhibition at 0.1 µM (H358 cells),inhibition at 0.1 µM (H460 cells),also measured
"CCc1c(F)ccc2cc(O)cc(N3CCc4c(nc(OC[C@@]56CCCN5C[C@H](F)C6)nc4N4CCCn5nc(C(=O)N(C)C)c(C(C)C)c5C4)C3)c12 [Example 295, 5-(7-(8-ethyl-7-fluoro-3-hydroxynaphthalen-1-yl)-2-(((2R,7aS)-2-fluorohexahydro-1H-pyrrolizin-7a-yl)methoxy)-5,6,7,8-tetrahydropyrido[3,4-d]pyrimidin-4-yl)-3-isopropyl-N,N-dimethyl-5,6,7,8-tetrahydro-4H-pyrazolo[1,5-a][1,4]diazepine-2-carboxamide]",23 nM,99%,< 2 nM,< 2 nM,< 2 nM,> 10000 nM,98%,–,–,3.5 nM,99%,20 nM,–,99%,98%,99%,–,60%,97%,84%,inhibition at 0.1 µM (HCT116 cells): 63%
"CCc1c(F)ccc2cc(O)cc(N3CCc4c(nc(OC[C@@]56CCCN5C[C@H](F)C6)nc4N4CCCn5nnc(Br)c5C4)C3)c12 [Example 284, 4-(4-(3-bromo-7,8-dihydro-4H-[1,2,3]triazolo[1,5-a][1,4]diazepin-5(6H)-yl)-2-(((2R,7aS)-2-fluorohexahydro-1H-pyrrolizin-7a-yl)methoxy)-5,6-dihydropyrido[3,4-d]pyrimidin-7(8H)-yl)-5-ethyl-6-fluoronaphthalen-2-ol]",21 nM,96%,< 2 nM,< 2 nM,< 2 nM,> 10000 nM,90%,22 nM,157 nM,30.5 nM,88%,3 nM,10 nM,95%,89%,88%,64 nM,66%,89%,53%,inhibition at 0.1 µM (HCT116 cells): 27%
"CCc1c(F)ccc2cc(O)cc(N3CCc4c(nc(OC[C@@]56CCCN5C[C@H](F)C6)nc4N4CCCn5nc(C(=O)N(C)C)c(COC)c5C4)C3)c12 [Example 269, 5-(7-(8-ethyl-7-fluoro-3-hydroxynaphthalen-1-yl)-2-(((2R,7aS)-2-fluorohexahydro-1H-pyrrolizin-7a-yl)methoxy)-5,6,7,8-tetrahydropyrido[3,4-d]pyrimidin-4-yl)-3-(methoxymethyl)-N,N-dimethyl-5,6,7,8-tetrahydro-4H-pyrazolo[1,5-a][1,4]diazepine-2-carboxamide]",5 nM,100%,< 2 nM,< 2 nM,< 2 nM,9880 nM,99%,2 nM,25 nM,1.4 nM,99%,3 nM,1 nM,100%,98%,99%,8 nM,93%,100%,89%,–

# The next lines start with results.
IC50 (H727 cells),inhibition at 0.01 µM (KRas G12S),IC50 (KRas G12R),IC50 (KRas G12D),IC50 (KRas G12V),IC50 (PSN1 cells),inhibition at 0.01 µM (KRas G13D),IC50 (A549 cells),IC50 (HCT116 cells),IC50 (MKN1 cells),inhibition at 0.01 µM (KRas G12A),IC50 (ASPC1 cells),IC50 (H358 cells),inhibition at 0.01 µM (KRas G12C),inhibition at 0.01 µM (KRas Q61H),inhibition at 0.01 µM (KRas WT),IC50 (H460 cells),Compound,inhibition at 0.1 µM (A549 cells),inhibition at 0.1 µM (H358 cells),inhibition at 0.1 µM (H460 cells),also measured
7 nM,96%,< 2 nM,< 2 nM,< 2 nM,5170 nM,90%,39 nM,160 nM,26.2 nM,90%,3 nM,9 nM,97%,91%,91%,46 nM,"CCc1c(F)ccc2cc(O)cc(N3CCc4c(nc(OC[C@@]56CCCN5C[C@H](F)C6)nc4N4CCCn5nc(C(=O)NC6CCC6)cc5C4)C3)c12 [Example 378, N-cyclobutyl-5-(7-(8-ethyl-7-fluoro-3-hydroxynaphthalen-1-yl)-2-(((2R,7aS)-2-fluorohexahydro-1H-pyrrolizin-7a-yl)methoxy)-5,6,7,8-tetrahydropyrido[3,4-d]pyrimidin-4-yl)-5,6,7,8-tetrahydro-4H-pyrazolo[1,5-a][1,4]diazepine-2-carboxamide]",69%,105%,–,–
2 nM,99%,< 2 nM,< 2 nM,< 2 nM,3680 nM,97%,5 nM,73 nM,7.8 nM,96%,1 nM,2 nM,99%,98%,97%,13 nM,"CCc1c(F)ccc2cc(O)cc(N3CCc4c(nc(OC[C@@]56CCCN5C[C@H](F)C6)nc4N4CCCn5nc(C(=O)N(C)C6CC6)cc5C4)C3)c12 [Example 383, N-cyclopropyl-5-(7-(8-ethyl-7-fluoro-3-hydroxynaphthalen-1-yl)-2-(((2R,7aS)-2-fluorohexahydro-1H-pyrrolizin-7a-yl)methoxy)-5,6,7,8-tetrahydropyrido[3,4-d]pyrimidin-4-yl)-N-methyl-5,6,7,8-tetrahydro-4H-pyrazolo[1,5-a][1,4]diazepine-2-carboxamide]",90%,98%,–,"inhibition at 0.1 µM (H727 cells; NCI-H727, single point at 100 nM, 3 hrs compound incubation): 85%; inhibition at 0.1 µM (ASPC1 cells; ASPC1, single point at 100 nM, 3 hrs compound incubation): 97%"
7 nM,98%,< 2 nM,< 2 nM,< 2 nM,3500 nM,93%,20 nM,91 nM,16.6 nM,94%,4 nM,4 nM,98%,93%,93%,36 nM,"CCc1c(F)ccc2cc(O)cc(N3CCc4c(nc(OC[C@@]56CCCN5C[C@H](F)C6)nc4N4CCCn5nc(C(=O)NCCOC)cc5C4)C3)c12 [Example 375, 5-(7-(8-ethyl-7-fluoro-3-hydroxynaphthalen-1-yl)-2-(((2R,7aS)-2-fluorohexahydro-1H-pyrrolizin-7a-yl)methoxy)-5,6,7,8-tetrahydropyrido[3,4-d]pyrimidin-4-yl)-N-(2-methoxyethyl)-5,6,7,8-tetrahydro-4H-pyrazolo[1,5-a][1,4]diazepine-2-carboxamide]",68%,102%,–,–
